One data set concerns HCV genotype 1a. Put plainly: HCV replicon assay, genotype 1a. The settings on record: Hepatitis C virus; HCV replicon cells, genotype 1a wild type; read-out: EC50 G 1a wild type. The data set is classed as cell-based. The procedure:
(§1) An HCV Replicon assay was utilized in the present disclosure, and was prepared, conducted and validated as described in commonly owned PCT/US2006/022197 and in O'Boyle et. al. Antimicrob Agents Chemother. 2005 April; 49(4):1346-53. Recommended assay methods incorporating luciferase reporters have also been used as described from commercial sources (Apath.com).
(§2) HCV-neo replicon cells and replicon cells containing resistance substitutions in the NS5A region were used to test the currently described family of compounds. The compounds were determined to have differing degrees of reduced inhibitory activity on cells containing mutations vs. the corresponding inhibitory potency against wild-type cells. Thus, the compounds of the present disclosure can be effective in inhibiting the function of the HCV NS5A protein and are understood to be as effective in combinations as previously described in application PCT/US2006/022197 and commonly owned WO/04014852. It should be understood that the compounds of the present disclosure can inhibit multiple genotypes of HCV.

The nature of data set [1]: IV and PO single dose pharmacokinetic studies in rat. The class given is in vivo. As to conditions: male Sprague-Dawley rats, plasma; for AUC: oral gavage 5 mg/kg, 24 h, read-out: 24 h rat PK (Auc); for bioavailability: oral gavage 5 mg/kg vs IV infusion 2 mg/kg, read-out: 24 h rat PK (oral bioavailability). The protocol: The pharmacokinetics of Examples 1 to 6 and Compound-A (WO2008/021927) were characterized in male Sprague-Dawley rats (260-310 g) (see Table 2). In these studies, two groups of animals (N=3 per group) received compound either as an intravenous (IV) infusion (2 mg/kg over 10 minutes) via the jugular vein or by oral gavage (5 mg/kg) in a vehicle of 100% PEG 400 or 90:5:5 PEG 400:ethanol:TPGS, respectively. The rats in the oral dosing group were fasted overnight. Serial blood samples were obtained at 0.17 (IV only), 0.25, 0.5, 0.75, 1, 2, 4, 6, 8, and 24 h post dose. Blood samples (˜0.3 mL) were collected from the jugular vein into K3EDTA-containing tubes and then centrifuged at 4° C. (1500-2000×g) to obtain plasma. Plasma samples were stored at −20° C. until analysis by LC/MS/MS.
A bioanalytical method utilizing liquid chromatography separation followed by tandem mass spectrometry detection (LC/MS/MS) was developed for the compound analysis in rat plasma. Detection was performed using selected reaction monitoring. Ions representing the precursor (M+H)^+ species were selected in quadrupole 1 and collisionally dissociated with N2 to generate specific product ions, which were subsequently monitored by quadrupole 3. Standard curves were prepared in male rat plasma and processed in the same manner as test samples to generate quantitative data.
Pharmacokinetic parameter values were calculated using noncompartmental methods by Kinetica. Values below the lower limit of quantification (LLOQ) were not used in calculations. Area under the curve (AUC) was calculated using the linear trapezoidal rule.

The subject of data set [2] is HCV genotype 1b wild type. Put plainly: HCV replicon assay, genotype 1b wild type. As to conditions: Hepatitis C virus, HCV replicon cells, read-out: EC50 G 1b wild type. The class given is cell-based. The procedure: as §1, §2
Data set [3] in a line: Cytotoxicity (CC50) in G 1a replicon cells. The class given is cell-based. As to conditions: HCV G 1a replicon cells. The protocol: as §1
The subject of data set [4] is HCV genotype 1b LV/YH double resistant mutant. Put plainly: HCV replicon assay, genotype 1b LV/YH double resistant mutant. The class given is cell-based. As to conditions: Hepatitis C virus, read-out: EC50 G 1b LV/YH. The protocol: as §1, §2
Data set [5] deals with genotype-1a YH single resistant mutant. Kind of data set: HCV replicon assay, genotype-1a YH single resistant mutant. The class given is cell-based. As to conditions: Hepatitis C virus, read-out: EC50 G 1a YH. The protocol: as §1, §2

As to `COC(=O)N[C@H](C(=O)N1CCC[C@H]1c1nc(-c2ccc(-c3ccc(-c4c[nH]c([C@@H]5CCCN5C(=O)[C@@H](NC(=O)OC)C5CCOCC5)n4)cc3)cc2)c[nH]1)C1CCOCC1` [Compound-A, reference compound], the EC50 in the data set with HCV genotype 1a was determined as 0.0511 nM; in data set [2] it was 0.119 nM; in data set [4], 20 nM; in data set [5], 13 nM. The AUC in data set [1] was found to be 0.103 µM·h. The bioavailability in data set [1] came to 1.3%. Besides, the 50% cytotoxic concentration (CC50) in data set [3] was found to be 63900 nM.
Take `COC(=O)N[C@H](C(=O)N1CCC[C@H]1c1nc(-c2ccc(-c3ccc(-c4c[nH]c([C@@H]5CCCN5C(=O)[C@@H](NC(=O)OC)C5C[C@@H](C)O[C@H](C)C5)n4)cc3)cc2)c[nH]1)C1C[C@@H](C)O[C@H](C)C1` (stereo partly shown) [Example-6]: the EC50 came to 0.0162 nM in the data set on HCV genotype 1a, 0.0367 nM in data set [2], 0.659 nM in data set [4] and 0.383 nM in data set [5]. For the same compound, the exposure (AUC) in data set [1] amounted to 1.36 µM·h. Further, in data set [1], the bioavailability amounted to 5%. This compound yielded a 50% cytotoxic concentration (CC50) in data set [3] of 15400 nM.
In the case of `COC(=O)N[C@H](C(=O)N1[C@@H](C)CC[C@H]1c1nc(-c2ccc(-c3ccc(-c4c[nH]c([C@@H]5CC[C@H](C)N5C(=O)[C@@H](NC(=O)OC)C5C[C@@H](C)O[C@H](C)C5)n4)c(F)c3)cc2)c[nH]1)C1C[C@@H](C)O[C@H](C)C1` (stereo partly shown) [Example-4], the EC50 in the data set on HCV genotype 1a is 0.00595 nM; in data set [2] it was 0.00415 nM; in data set [4], 0.436 nM; in data set [5] it was 0.402 nM. Besides, the exposure (AUC) in data set [1] amounted to 1.73 µM·h. The bioavailability in data set [1] came out at 16%. For the same compound, in data set [3], the CC50 is 7750 nM.
Consider `COC(=O)N[C@H](C(=O)N1[C@@H](C)CC[C@H]1c1nc(-c2ccc(-c3ccc(-c4c[nH]c([C@@H]5CC[C@H](C)N5C(=O)[C@@H](NC(=O)OC)C5C[C@@H](C)O[C@H](C)C5)n4)cc3)cc2)c[nH]1)C1C[C@@H](C)O[C@H](C)C1` (stereo partly drawn) [Example-2, Dimethyl(4,4′-biphenyldiylbis(1H-imidazole-4,2-diyl((2S,5S)-5-methyl-2,1-pyrrolidinediyl)((1S)-1-((2R,6R)-2,6-dimethyltetrahydro-2H-pyran-4-yl)-2-oxo-2,1-ethanediyl)))biscarbamate], for which the EC50 amounted to 0.00643 nM in the data set with HCV genotype 1a, 0.00803 nM in data set [2], 0.115 nM in data set [4] and 0.158 nM in data set [5]. Further, the AUC in data set [1] is 2.22 µM·h. Further, the bioavailability in data set [1] stood at 12%. The compound also yielded a cytotoxic concentration (CC50) in data set [3] of 5890 nM.
`COC(=O)N[C@H](C(=O)N1[C@@H](C)CC[C@H]1c1nc(-c2ccc(-c3ccc(-c4c[nH]c([C@@H]5CC[C@H](C)N5C(=O)[C@@H](NC(=O)OC)C5C[C@@H](C)O[C@H](C)C5)n4)c(C)c3)cc2)c[nH]1)C1C[C@@H](C)O[C@H](C)C1` (stereo partly shown) [Example-3]: the EC50 amounted to 0.0052 nM in the data set on HCV genotype 1a, 0.00641 nM in data set [2], 0.191 nM in data set [4] and 1.08 nM in data set [5]. Besides, the area under the curve (AUC) in data set [1] was 4.49 µM·h. In addition, the bioavailability in data set [1] was found to be 17%. In data set [3], the midpoint of cytotoxicity, the CC50, lay at 6150 nM.
In the case of `COC(=O)N[C@H](C(=O)N1[C@H](c2nc(-c3ccc(-c4ccc(-c5c[nH]c([C@@H]6C[C@@]7(C)C[C@H]7N6C(=O)[C@@H](NC(=O)OC)C6C[C@@H](C)O[C@H](C)C6)n5)cc4)cc3)c[nH]2)C[C@@]2(C)C[C@@H]12)C1C[C@@H](C)O[C@H](C)C1` (stereo partly shown) [Example-5], the EC50 with HCV genotype 1a was 0.00372 nM; in data set [2] it was 0.00685 nM; in data set [4], 0.00985 nM; in data set [5], 0.0607 nM. Moreover, the area under the curve (AUC) in data set [1] was 0.539 µM·h. Besides, in data set [1], the bioavailability came out at 6.3%. Besides, in data set [3], the midpoint of cytotoxicity, the CC50, lay at 5340 nM.
On to `COC(=O)N[C@H](C(=O)N1[C@@H](C)CC[C@H]1c1nc(-c2ccc(-c3ccc(-c4c[nH]c([C@@H]5CC[C@H](C)N5C(=O)[C@@H](NC(=O)OC)[C@H]5C[C@@H](C)O[C@@H](C)C5)n4)cc3)cc2)c[nH]1)[C@@H]1C[C@@H](C)O[C@@H](C)C1` [Example-1], for which the EC50 in the data set with HCV genotype 1a is 0.00548 nM; in data set [2] it was 0.00396 nM; in data set [4] it was 3.19 nM; in data set [5] it was 0.977 nM. In data set [1], the area under the curve (AUC) amounted to 1.6 µM·h. Besides, the bioavailability in data set [1] amounted to 15%. The same compound came in with a CC50 in data set [3] of 8460 nM.
